This is an account of results in patent publication US7888372B2, “Compositions and methods for modulating bone mineral deposition” (National Institutes of Health (NIH), priority 2001, dated 2011).

In test [1] the target is T1, TNAP activity (Mus musculus, UniProt P09242).
T1 sequence (P09242 18-501): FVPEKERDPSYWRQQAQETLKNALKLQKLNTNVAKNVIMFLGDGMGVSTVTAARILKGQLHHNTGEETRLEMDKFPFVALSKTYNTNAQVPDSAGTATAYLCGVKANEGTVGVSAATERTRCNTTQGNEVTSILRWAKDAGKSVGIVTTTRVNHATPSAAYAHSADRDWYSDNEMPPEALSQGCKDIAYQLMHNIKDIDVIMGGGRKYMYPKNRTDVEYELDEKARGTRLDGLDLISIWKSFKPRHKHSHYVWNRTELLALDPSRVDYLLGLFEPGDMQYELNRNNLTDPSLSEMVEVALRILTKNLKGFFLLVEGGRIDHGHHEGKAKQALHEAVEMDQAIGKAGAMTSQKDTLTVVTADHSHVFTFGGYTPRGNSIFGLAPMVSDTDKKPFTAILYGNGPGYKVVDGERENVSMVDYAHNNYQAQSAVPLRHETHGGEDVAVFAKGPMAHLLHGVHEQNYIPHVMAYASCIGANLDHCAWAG
The arrangement: endogenous in cells. To be noted: cited from earlier work.

The test system of test [2] is PC-1-/- osteoblast cultures. In words: Addition of recombinant proteins or PPi to PC-1-/- osteoblast cultures. The format is cell-based, mouse.
Test [3] deals with ank/ank osteoblast cultures. Put plainly: Addition of recombinant proteins or PPi to ank/ank osteoblast cultures. The class given is cell-based, mouse.
Test [4] concerns TNAP knock-out mice. The settings on record: TNAP knock-out mice of Waymire et al.; cited from earlier work.
In test [5] the test system is TNAP ko osteoblasts. Put plainly: Mineralization of bone nodules in primary TNAP ko osteoblast cultures (von Kossa). The class given is cell-based, mouse. To be noted: added to the ko osteoblast culture medium. The protocol: Primary cultures of osteoblasts were isolated from calvariae of 1-4 day old pups that were hybrids of C57Bl/6×129/J mouse strains with wild-type, heterozygote and homozygote TNAP null genotypes. Isolation was performed by a slightly modified version of the time sequential collagenase technique described by Boonekamp et al. (Proc. Kon. Ned. Akad. Wet. B87:371-382, 1984). In brief, calvariae of the same genotype were pooled and three 10 minute incubations in 4 mM EDTA, 137 mM NaCl, 2.7 mM KCl, 3 mM NaH2PO4, pH 7.2, were performed, followed by seven 10 minute digestions in EDTA-free buffer, containing 180 units/ml collagenase type II (Worthington Biochemical Corporation, Lakewood, N.J.). All isolations were performed at 37° C. in a shaking water bath. The last five collagenase digestions, containing an enriched cell population of osteoblastic phenotype, were pooled and seeded at 4×10^4 cells/cm^2 in αMEM (Gibco BRL, Grand Island, N.Y.), containing 10% heat-inactivated FCS, penicillin (50 U/ml) and streptomycin ([…]).
To study mineralization, we used conditions under which we observed that osteoblasts normally formed von Kossa stain positive and alizarin red positive nodules at 7-10 days in culture. In brief, primary calvarial osteoblasts were cultured in complete αMEM media as described above, supplemented with β-glycerophosphate (10 mM) every third day and L-ascorbic acid (50 μg/ml) daily. MC3T3-E1 cells (Johnson et al., J. Bone Min. Res. 14:883-892, 1999) were maintained in the same medium, and for each experiment were plated at 80% confluence (1×10^6 cells in a 10 cm tissue-culture plastic dish in 5 ml) and received β-glycerophosphate and L-ascorbic acid as for primary osteoblasts above.
To evaluate the ability of primary osteoblasts to form and mineralize bone nodules in vitro, wild-type (wt), heterozygous and knock-out (ko) osteoblasts were cultured in media supplemented with ascorbic acid, using β-glycerophosphate as phosphate source. […] The extent of bone mineral deposition in these cultures was confirmed by quantifications of deposited calcium. […]

With `N=C(N)NCCCC[C@H](N)C(=O)O` [L-homoarginine], the “kind of inhibitor of TNAP activity” value in test [1] is “specific uncompetitive inhibitors of TNAP activity”.

In the case of `O=P(O)(O)OP(=O)(O)O` [PPi, inorganic pyrophosphate, reference compound], the osteopontin expression levels entry in test [2] (osteoblast cultures deficient in PC-1) and in test [3] (osteoblast cultures deficient in ANK protein) was “corrected their osteopontin expression levels to those comparable to wild-type” each time. In the case of `c1ccc([C@H]2CN3CCSC3=N2)cc1` [levamisole], in test [1], the “kind of inhibitor of TNAP activity” value is listed as “specific uncompetitive inhibitors of TNAP activity”. `Cc1ncc(CO)c(CO)c1O.Cl` [vitamin B6]: in test [4], the epileptic seizures result was “partially rescue the epileptic seizures” and the life span result is listed as “prolonging their life”. For the molecule “recombinant osteopontin: recombinant osteopontin added to osteoblast cultures”, the “mineralization capacity (matrix calcification)” value in test [2] (PC-1-/- osteoblast cultures) and in test [3] (ank/ank osteoblast cultures) was “restored to normal” each time.

B1: heat-inactivated recombinant TNAP: heat-inactivated recombinant TNAP (protein, UniProt P05186 18-501, looked up)
Alkaline phosphatase, …: LVPEKEKDPKYWRDQAQETLKYALELQKLNTNVAKNVIMFLGDGMGVSTVTAARILKGQLHHNPGEETRLEMDKFPFVALSKTYNTNAQVPDSAGTATAYLCGVKANEGTVGVSAATERSRCNTTQGNEVTSILRWAKDAGKSVGIVTTTRVNHATPSAAYAHSADRDWYSDNEMPPEALSQGCKDIAYQLMHNIRDIDVIMGGGRKYMYPKNKTDVEYESDEKARGTRLDGLDLVDTWKSFKPRYKHSHFIWNRTELLTLDPHNVDYLLGLFEPGDMQYELNRNNVTDPSLSEMVVVAIQILRKNPKGFFLLVEGGRIDHGHHEGKAKQALHEAVEMDRAIGQAGSLTSSEDTLTVVTADHSHVFTFGGYTPRGNSIFGLAPMLSDTDKKPFTAILYGNGPGYKVVGGERENVSMVDYAHNNYQAQSAVPLRHETHGGEDVAVFSKGPMAHLLHGVHEQNYVPHVMAYAACIGANLGHCAPAS
modifications: heat-inactivated
Take B1: the induction of mineralization entry in test [5] is “neither heat-inactivated recombinant TNAP, nor enzymatically inactive mutants of TNAP, such as [R54C]TNAP or [V365I]TNAP, were able to induce mineralization”.

B2: [V365I]TNAP: enzymatically inactive mutant of TNAP (protein, UniProt P05186 18-501, looked up, variant V365I)
Alkaline phosphatase, …: LVPEKEKDPKYWRDQAQETLKYALELQKLNTNVAKNVIMFLGDGMGVSTVTAARILKGQLHHNPGEETRLEMDKFPFVALSKTYNTNAQVPDSAGTATAYLCGVKANEGTVGVSAATERSRCNTTQGNEVTSILRWAKDAGKSVGIVTTTRVNHATPSAAYAHSADRDWYSDNEMPPEALSQGCKDIAYQLMHNIRDIDVIMGGGRKYMYPKNKTDVEYESDEKARGTRLDGLDLVDTWKSFKPRYKHSHFIWNRTELLTLDPHNVDYLLGLFEPGDMQYELNRNNVTDPSLSEMVVVAIQILRKNPKGFFLLVEGGRIDHGHHEGKAKQALHEAVEMDRAIGQAGSLTSSEDTLTVVTADHSHIFTFGGYTPRGNSIFGLAPMLSDTDKKPFTAILYGNGPGYKVVGGERENVSMVDYAHNNYQAQSAVPLRHETHGGEDVAVFSKGPMAHLLHGVHEQNYVPHVMAYAACIGANLGHCAPAS
On to B2, for which, in test [5], the induction of mineralization entry was “nor enzymatically inactive mutants of TNAP, such as [R54C]TNAP or [V365I]TNAP, were able to induce mineralization”.

B3: [R54C]TNAP: enzymatically inactive mutant of TNAP (protein, UniProt P05186 18-501, looked up, variant R54C)
Alkaline phosphatase, …: LVPEKEKDPKYWRDQAQETLKYALELQKLNTNVAKNVIMFLGDGMGVSTVTAACILKGQLHHNPGEETRLEMDKFPFVALSKTYNTNAQVPDSAGTATAYLCGVKANEGTVGVSAATERSRCNTTQGNEVTSILRWAKDAGKSVGIVTTTRVNHATPSAAYAHSADRDWYSDNEMPPEALSQGCKDIAYQLMHNIRDIDVIMGGGRKYMYPKNKTDVEYESDEKARGTRLDGLDLVDTWKSFKPRYKHSHFIWNRTELLTLDPHNVDYLLGLFEPGDMQYELNRNNVTDPSLSEMVVVAIQILRKNPKGFFLLVEGGRIDHGHHEGKAKQALHEAVEMDRAIGQAGSLTSSEDTLTVVTADHSHVFTFGGYTPRGNSIFGLAPMLSDTDKKPFTAILYGNGPGYKVVGGERENVSMVDYAHNNYQAQSAVPLRHETHGGEDVAVFSKGPMAHLLHGVHEQNYVPHVMAYAACIGANLGHCAPAS
For B3, the induction of mineralization entry in test [5] was “nor enzymatically inactive mutants of TNAP, such as [R54C]TNAP or [V365I]TNAP, were able to induce mineralization”.
